Values after ≈ are worked out from the molar mass of the structure shown.

The MIC is the smallest concentration in the dilution series that meets the test's criterion for growth inhibition. Lower therefore signals a more susceptible organism. One may read the MIC80 as the lowest concentration that inhibits either 80% of growth or 80% of the strains tested, depending on the study. Read a high MIC80 as weaker potency.

The subject of one test is Micrococcus luteus. Briefly: Antibacterial activity against Micrococcus luteus ATCC 4698 by micro broth dilution method. Type of test: functional. To be noted: NCTC 2665. Background: Dilution methods test growth across graded concentrations, often in twofold steps.
The compound `CCn1cc(C(=O)O)c(=O)c2cc(F)c(N3CCN(CNc4nc5ccccc5[nH]4)CC3)cc21` showed an MIC of 4 µg/mL (≈ 8.61 µM).

The compound `CCn1cc(C(=O)O)c(=O)c2cc(F)c(N3CCN(Cc4nc5ccccc5n4Cc4cccc(Cl)c4)CC3)cc21` had a minimal inhibitory concentration (MIC) of 2 µg/mL (≈ 3.48 µM).

Turning to `O=C(O)c1cn(C2CC2)c2cc(N3CCN(Cc4nc5ccc(Br)cc5[nH]4)CC3)c(F)cc2c1=O`, inhibition of growth (MIC) required 16 µg/mL (≈ 29.6 µM).

A further test relates to Bacillus spizizenii. Briefly: Antibacterial activity against Bacillus subtilis ATCC 6633 by micro broth dilution method. Type of test: functional.
Details: not given
As to `CCn1cc(C(=O)O)c(=O)c2cc(F)c(N3CCN(CNc4nc5ccccc5[nH]4)CC3)cc21`, the lowest concentration to inhibit growth (MIC) was 8 µg/mL (≈ 17.2 µM).

In turn, `CCn1cc(C(=O)O)c(=O)c2cc(F)c(N3CCN(Cc4nc5ccccc5n4Cc4cccc(Cl)c4)CC3)cc21` yielded an MIC of 16 µg/mL (≈ 27.9 µM).

In turn, `O=C(O)c1cn(C2CC2)c2cc(N3CCN(Cc4nc5ccc(Br)cc5[nH]4)CC3)c(F)cc2c1=O` came in with a minimum inhibitory concentration (MIC) of 16 µg/mL (≈ 29.6 µM).

The subject of another test is Saccharomyces cerevisiae. The test can be described thus: Antifungal activity against Saccharomyces cerevisiae ATCC 9763 after 24 hrs by micro broth dilution method. Type of test: functional. To be noted: ATCC 9763, 24 h.
`CCn1cc(C(=O)O)c(=O)c2cc(F)c(N3CCN(CNc4nc5ccccc5[nH]4)CC3)cc21` had an MIC80 of 8 µg/mL (≈ 17.2 µM).

As to `CCn1cc(C(=O)O)c(=O)c2cc(F)c(N3CCN(Cc4nc5ccccc5n4Cc4cccc(Cl)c4)CC3)cc21`, the MIC80 turned out to be 8 µg/mL (≈ 13.9 µM).

Consider `O=C(O)c1cn(C2CC2)c2cc(N3CCN(Cc4nc5ccc(Br)cc5[nH]4)CC3)c(F)cc2c1=O`, for which the MIC80 is 4 µg/mL (≈ 7.4 µM).

Test system in another test: not listed separately
The test can be described thus: Antibacterial activity against Bacillus proteus ATCC 13315 by micro broth dilution method.
Details: not given
Type of test: functional.
As to `CCn1cc(C(=O)O)c(=O)c2cc(F)c(N3CCN(CNc4nc5ccccc5[nH]4)CC3)cc21`, the MIC stood at 8 µg/mL (≈ 17.2 µM).

With `CCn1cc(C(=O)O)c(=O)c2cc(F)c(N3CCN(Cc4nc5ccccc5n4Cc4cccc(Cl)c4)CC3)cc21`, the MIC was determined as 32 µg/mL (≈ 55.7 µM).

For the compound `O=C(O)c1cn(C2CC2)c2cc(N3CCN(Cc4nc5ccc(Br)cc5[nH]4)CC3)c(F)cc2c1=O`, it took 8 µg/mL (≈ 14.8 µM) to inhibit growth (MIC).

A further test deals with Salmonella enterica. The test can be described thus: Antibacterial activity against Salmonella enterica ATCC 14028 by micro broth dilution method. Type of test: functional.
Details: not given
Regarding `CCn1cc(C(=O)O)c(=O)c2cc(F)c(N3CCN(CNc4nc5ccccc5[nH]4)CC3)cc21`, the MIC was determined as 2 µg/mL (≈ 4.31 µM).

Compound `CCn1cc(C(=O)O)c(=O)c2cc(F)c(N3CCN(Cc4nc5ccccc5n4Cc4cccc(Cl)c4)CC3)cc21` showed an MIC of 4 µg/mL (≈ 6.97 µM).

As for `O=C(O)c1cn(C2CC2)c2cc(N3CCN(Cc4nc5ccc(Br)cc5[nH]4)CC3)c(F)cc2c1=O`, inhibition of growth (MIC) required 4 µg/mL (≈ 7.4 µM).

The test system of the next test is Staphylococcus aureus. The test can be described thus: Antibacterial activity against Staphylococcus aureus ATCC 25923 by micro broth dilution method.
Details: not given
Type of test: functional.
In turn, `CCn1cc(C(=O)O)c(=O)c2cc(F)c(N3CCN(CNc4nc5ccccc5[nH]4)CC3)cc21` had an MIC of 2 µg/mL (≈ 4.31 µM).

As to `CCn1cc(C(=O)O)c(=O)c2cc(F)c(N3CCN(Cc4nc5ccccc5n4Cc4cccc(Cl)c4)CC3)cc21`, the MIC came to 64 µg/mL (≈ 111 µM).

The compound `O=C(O)c1cn(C2CC2)c2cc(N3CCN(Cc4nc5ccc(Br)cc5[nH]4)CC3)c(F)cc2c1=O` displayed an MIC of 64 µg/mL (≈ 118 µM).

In a further test the test system is Aspergillus flavus. The test can be described thus: Antifungal activity against Aspergillus flavus ATCC 204304 after 24 hrs by micro broth dilution method. Type of test: functional. To be noted: ATCC 204304, 24 h.
On to `CCn1cc(C(=O)O)c(=O)c2cc(F)c(N3CCN(CNc4nc5ccccc5[nH]4)CC3)cc21`, for which the MIC80 was found to be 4 µg/mL (≈ 8.61 µM).

Regarding `CCn1cc(C(=O)O)c(=O)c2cc(F)c(N3CCN(Cc4nc5ccccc5n4Cc4cccc(Cl)c4)CC3)cc21`, the MIC80 is 1 µg/mL (≈ 1.74 µM).

Take `O=C(O)c1cn(C2CC2)c2cc(N3CCN(Cc4nc5ccc(Br)cc5[nH]4)CC3)c(F)cc2c1=O`: the MIC80 stood at 2 µg/mL (≈ 3.7 µM).

For a further test, the system named is Escherichia coli. The test can be described thus: Antibacterial activity against Escherichia coli DH52 by micro broth dilution method. Type of test: functional.
Details: not given
On to `CCn1cc(C(=O)O)c(=O)c2cc(F)c(N3CCN(CNc4nc5ccccc5[nH]4)CC3)cc21`, for which the lowest concentration to inhibit growth (MIC) was 1 µg/mL (≈ 2.15 µM).

In turn, `CCn1cc(C(=O)O)c(=O)c2cc(F)c(N3CCN(Cc4nc5ccccc5n4Cc4cccc(Cl)c4)CC3)cc21` showed a minimal inhibitory concentration (MIC) of 8 µg/mL (≈ 13.9 µM).

The compound `O=C(O)c1cn(C2CC2)c2cc(N3CCN(Cc4nc5ccc(Br)cc5[nH]4)CC3)c(F)cc2c1=O` came in with an MIC of 8 µg/mL (≈ 14.8 µM).

The test system of the next test is Pseudomonas aeruginosa. Briefly: Antibacterial activity against Pseudomonas aeruginosa ATCC 27853 by micro broth dilution method. Type of test: functional.
Details: not given
The compound `CCn1cc(C(=O)O)c(=O)c2cc(F)c(N3CCN(CNc4nc5ccccc5[nH]4)CC3)cc21` yielded an MIC of 1 µg/mL (≈ 2.15 µM).

On to `CCn1cc(C(=O)O)c(=O)c2cc(F)c(N3CCN(Cc4nc5ccccc5n4Cc4cccc(Cl)c4)CC3)cc21`, for which 2 µg/mL (≈ 3.48 µM) was the least that counted as inhibitory (MIC).

Regarding `O=C(O)c1cn(C2CC2)c2cc(N3CCN(Cc4nc5ccc(Br)cc5[nH]4)CC3)c(F)cc2c1=O`, the MIC was determined as 1 µg/mL (≈ 1.85 µM).

Another test has as its system Escherichia coli. Briefly: Antibacterial activity against Escherichia coli JM109 by micro broth dilution method. Type of test: functional.
Details: not given
The compound `CCn1cc(C(=O)O)c(=O)c2cc(F)c(N3CCN(CNc4nc5ccccc5[nH]4)CC3)cc21` came in with a minimal inhibitory concentration (MIC) of 16 µg/mL (≈ 34.4 µM).

As to `CCn1cc(C(=O)O)c(=O)c2cc(F)c(N3CCN(Cc4nc5ccccc5n4Cc4cccc(Cl)c4)CC3)cc21`, the MIC amounted to 64 µg/mL (≈ 111 µM).

For `O=C(O)c1cn(C2CC2)c2cc(N3CCN(Cc4nc5ccc(Br)cc5[nH]4)CC3)c(F)cc2c1=O`, the minimum inhibitory concentration (MIC) is 32 µg/mL (≈ 59.2 µM).

The test system of a further test is Staphylococcus aureus. The test can be described thus: Antibacterial activity against methicillin-resistant Staphylococcus aureus N315 by micro broth dilution method.
Details: not given
Type of test: functional.
In turn, `CCn1cc(C(=O)O)c(=O)c2cc(F)c(N3CCN(CNc4nc5ccccc5[nH]4)CC3)cc21` gave an MIC of 0.5 µg/mL (≈ 1.08 µM).

As for `CCn1cc(C(=O)O)c(=O)c2cc(F)c(N3CCN(Cc4nc5ccccc5n4Cc4cccc(Cl)c4)CC3)cc21`, the MIC amounted to 2 µg/mL (≈ 3.48 µM).

`O=C(O)c1cn(C2CC2)c2cc(N3CCN(Cc4nc5ccc(Br)cc5[nH]4)CC3)c(F)cc2c1=O`: the MIC is 4 µg/mL (≈ 7.4 µM).

Test system in a further test: not listed separately
Briefly: Antifungal activity against Candida mycoderma ATCC 9888 after 24 hrs by micro broth dilution method. The note with it: Candida vini. Type of test: functional.
`CCn1cc(C(=O)O)c(=O)c2cc(F)c(N3CCN(CNc4nc5ccccc5[nH]4)CC3)cc21` returned an MIC80 of 1 µg/mL (≈ 2.15 µM).

In turn, `CCn1cc(C(=O)O)c(=O)c2cc(F)c(N3CCN(Cc4nc5ccccc5n4Cc4cccc(Cl)c4)CC3)cc21` showed an MIC80 of 2 µg/mL (≈ 3.48 µM).

Take `O=C(O)c1cn(C2CC2)c2cc(N3CCN(Cc4nc5ccc(Br)cc5[nH]4)CC3)c(F)cc2c1=O`: the MIC80 stood at 16 µg/mL (≈ 29.6 µM).

The next test concerns Candida albicans. Briefly: Antifungal activity against Candida albicans ATCC 10231 after 24 hrs by micro broth dilution method. Type of test: functional. To be noted: ATCC 10231, 24 h.
Consider `CCn1cc(C(=O)O)c(=O)c2cc(F)c(N3CCN(CNc4nc5ccccc5[nH]4)CC3)cc21`, for which the MIC80 stood at 2 µg/mL (≈ 4.31 µM).

On to `CCn1cc(C(=O)O)c(=O)c2cc(F)c(N3CCN(Cc4nc5ccccc5n4Cc4cccc(Cl)c4)CC3)cc21`, for which the MIC80 worked out at 8 µg/mL (≈ 13.9 µM).

`O=C(O)c1cn(C2CC2)c2cc(N3CCN(Cc4nc5ccc(Br)cc5[nH]4)CC3)c(F)cc2c1=O` gave an MIC80 of 2 µg/mL (≈ 3.7 µM).

For another test, the system named is Shigella dysenteriae. The test can be described thus: Antibacterial activity against Shigella dysenteriae by micro broth dilution method.
Details: not given
Type of test: functional.
As for `CCn1cc(C(=O)O)c(=O)c2cc(F)c(N3CCN(CNc4nc5ccccc5[nH]4)CC3)cc21`, the MIC is 0.5 µg/mL (≈ 1.08 µM).

Compound `CCn1cc(C(=O)O)c(=O)c2cc(F)c(N3CCN(Cc4nc5ccccc5n4Cc4cccc(Cl)c4)CC3)cc21` returned an MIC of 64 µg/mL (≈ 111 µM).

`O=C(O)c1cn(C2CC2)c2cc(N3CCN(Cc4nc5ccc(Br)cc5[nH]4)CC3)c(F)cc2c1=O` gave a minimum inhibitory concentration (MIC) of 16 µg/mL (≈ 29.6 µM).

The test system of a further test is Cyberlindnera jadinii. Briefly: Antifungal activity against Candida utilis ATCC 9950 after 24 hrs by micro broth dilution method. The note with it: Williopsis jadinii, ATCC 9950, 24 h. Type of test: functional.
In turn, `CCn1cc(C(=O)O)c(=O)c2cc(F)c(N3CCN(CNc4nc5ccccc5[nH]4)CC3)cc21` registered an MIC80 of 1 µg/mL (≈ 2.15 µM).

In turn, `CCn1cc(C(=O)O)c(=O)c2cc(F)c(N3CCN(Cc4nc5ccccc5n4Cc4cccc(Cl)c4)CC3)cc21` yielded an MIC80 of 4 µg/mL (≈ 6.97 µM).

On to `O=C(O)c1cn(C2CC2)c2cc(N3CCN(Cc4nc5ccc(Br)cc5[nH]4)CC3)c(F)cc2c1=O`, for which the MIC80 was found to be 4 µg/mL (≈ 7.4 µM).
